Data taken from patent US10421754B2, “Quinazoline derivative” (CSPC ZHONGQI PHARMACEUTICAL TECHNOLOGY (SHIJIAZHUANG) CO., …, priority 2014, dated 2019).

Legend:
[1] = tested on: HCT116; assay: In vitro cell experiment (MTT), HCT116; type: cell-based; settings: HCT-116, 72 h, human colon carcinoma cells
Protocol: (§1) Cells in logarithmic growth phase were seeded at a certain density in a 96-well plate (200 μL/well). The cells were allowed to grow for 24 h and subsequently treated with different concentrations of drugs (including a blank group and a control group) and incubated for 72 h at 37° C. Each concentration in a given experiment was tested in triplicate. After 72 h of exposure, 20 μL of the MTT labeling reagent was added to the medium (the final concentration of MTT was 0.5 mg/mL), and the cells were incubated for additional 4 h at 37° C. Following this process, 180 μL of the medium was removed and 130 μL of DMSO was added to each well, or the medium was completely removed and 150 μL of DMSO was added to each well. Then the plate was shaken and mixed in a micro-oscillator. Finally the optical density (OD) of each sample was measured in a micro-plate reader at 550 nm. Cell inhibition rate was calculated according to the following formula: […]
(§2) According to cell inhibition rates, IC50 was calculated by LOGIT method. The experiments were repeated twice and the data was expressed as means±SD.

[2] = Mouse maximum tolerated dose (MTD) experiment; settings: in vivo, mice, oral, administered 7 days then observed 7 days
Protocol: In the mouse MTD experiment, the mice were administrated with the present compounds.
Healthy mice, having a small difference in body's weights, were chosen. The chosen mice were placed in different layers of cages according to their body's weights. In each layer, the mice were randomly divided into groups. In each group, there were three mice.
The administration dosages were 1000, 500, 250, 125, 62.5 and 31.25 mg/kg respectively and each two dosages differed by a factor of 2. For each of administration dosages, three mice were allotted. The mice were administrated with the present compounds for 7 days and then observed for the next 7 days without the present compounds.
The present compounds were orally administrated with the mice according to the administration dosage and the body weight.

[3] = tested on: HCC827; assay: In vitro cell experiment (MTT), HCC827; type: cell-based; settings: 72 h, human non-small cell lung carcinoma (EGFR1 19 exon mutation)
Protocol: as §1, §2

[4] = tested on: A549; assay: In vitro cell experiment (MTT), A549; type: cell-based; settings: 72 h, human non-small-cell lung carcinoma cells (EGFR1 wildtype)
Protocol: as §1, §2

[5] = tested on: SK-OV-3; assay: In vitro cell experiment (MTT), SK-OV-3; type: cell-based; settings: 72 h, human ovarian carcinoma cells (EGFR2 overexpressing)
Protocol: as §1, §2

[6] = tested on: H292; assay: In vitro cell experiment (MTT), H292; type: cell-based; settings: NCI-H292, 72 h, human lung carcinoma cells (EGFR1 overexpressing)
Protocol: as §1, §2

Work on `COc1cc2c(Nc3ccc(Br)cc3F)ncnc2cc1Oc1ccc(C(=O)N2CCOCC2)cn1` [Compound 18, (6-(4-(4-bromo-2-fluoroanilino)-6-methoxyquinazolin-7-yl-oxy)pyridine-3-yl)(morpholino)methanone] yielded an IC50 [1] of 962 nM.

With `COc1cc2c(Nc3ccc(Br)cc3F)ncnc2cc1OCc1cccc(C)n1` [Compound 7, 4-(4-bromo-2-fluoroanilino)-6-methoxy-7-((6-methylpyridine-2-yl)methoxy)quinazoline] the MTD [2] was 62.5 to 125 mg/kg and the IC50 [3] was 8.6 nM.

`CNC(=O)CCCCCOc1cc2ncnc(Nc3ccc(Br)cc3F)c2cc1OC` [Compound 31, N-methyl-6-(4-(4-bromo-2-fluoroanilino)-6-methoxyquinazolin-7-yloxy)hexanamide] gave an IC50 [3] of 10.7 nM.

`CNC(=O)CCCCCOc1cc2ncnc(Nc3ccc(F)c(Cl)c3)c2cc1OC` [Compound 42, N-methyl-6-(4-(3-chloro-4-fluoroanilino)-6-methoxyquinazolin-7-yloxy)hexanamide] gave an IC50 [3] of 2.8 nM.

`COc1cc2c(Nc3ccc(Br)cc3F)ncnc2cc1OCc1csc(C)n1` [Compound 17, 4-(4-bromo-2-fluoroanilino)-6-methoxy-7-((2-methylthiazole-4-yl)methoxy)quinazoline] showed an MTD [2] of 500 to 1000 mg/kg and an IC50 [3] of 6.7 nM.

With `COc1cc2c(Nc3ccc(F)c(Cl)c3)ncnc2cc1OCCn1ccnc1` [Compound 36, 4-(3-chloro-4-fluoroanilino)-6-methoxy-7-(2-(1H-imidazol-1-yl)ethoxy)quinazoline] the IC50 [4] was 3640 nM and the IC50 [5] was 2920 nM.

`COc1cc2c(Nc3ccc(Br)cc3F)ncnc2cc1OCc1ccc(C(F)(F)F)cc1` [Compound 5, 4-(4-bromo-2-fluoroanilino)-6-methoxy-7-(4-trifluoromethyl-benzyloxy)quinazoline] gave an IC50 [1] of 1040 nM.

`COc1cc2c(Nc3ccc(Br)cc3F)ncnc2cc1OCCn1c(C)nc2ccccc21` [Compound 8, 4-(4-bromo-2-fluoroanilino)-6-methoxy-7-(2-(2-methyl-1H-benzo[d]imidazole-1-yl)ethoxy)quinazoline] gave an IC50 [5] of 2770 nM.

`COc1cc2c(Nc3ccc(F)c(Cl)c3)ncnc2cc1OCCCn1ccnc1` [Compound 25, 4-(3-chloro-4-fluoroanilino)-6-methoxy-7-(3-(1H-imidazole-1-yl)propoxy)quinazoline] showed an IC50 [3] of 2.6 nM.

Compound `COc1cc2c(Nc3ccc(F)c(Cl)c3)ncnc2cc1OCc1csc(C)n1` [Compound 27′, 4-(3-chloro-4-fluoroanilino)-6-methoxy-7-((2-methylthiazol-4-yl)methoxy)quinazoline] has an IC50 [3] of 6.2 nM.

With `COc1cc2c(Nc3ccc(Br)cc3F)ncnc2cc1OCCc1csc(C)n1` [Compound 26, 4-(4-bromo-2-fluoroanilino)-6-methoxy-7-(2-(2-methylthiazol-4-yl)ethoxy)quinazoline] the IC50 [3] was 1.4 nM.

`COc1cc2c(Nc3ccc(F)c(Cl)c3)ncnc2cc1OCCCCCC(=O)N(C)C` [Compound 43, N, N-dimethyl-6-(4-(3-chloro-4-fluoroanilino)-6-methoxyquinazolin-7-yloxy)hexanamide] showed an IC50 [3] of 4.1 nM.

In the case of `COc1cc2c(Nc3ccc(Br)cc3F)ncnc2cc1OCc1cccc(C#N)c1` [Compound 3, 4-(4-bromo-2-fluoroanilino)-6-methoxy-7-(3-cyanobenzyloxy) quinazoline], the MTD [2] is reported as 500 to 1000 mg/kg, the IC50 [1] is reported as 892 nM and the IC50 [5] is reported as 2020 nM.

For `COc1cc2c(Nc3ccc(F)c(Cl)c3)ncnc2cc1OCCCCC(N)=O` [Compound 41, 5-(4-(3-chloro-4-fluoroanilino)-6-methoxyquinazolin-7-yl-oxy)pentanamide], the IC50 [6] was 89.9 nM, the IC50 [3] was 0.9 nM and the IC50 [4] was 2710 nM. For the same compound, the IC50 [5] was 2680 nM.

`COc1cc2c(Nc3ccc(Br)cc3F)ncnc2cc1OCc1ccc(N2CCOCC2)cc1` [Compound 12, 4-(4-bromo-2-fluoroanilino)-6-methoxy-7-(4-morpholinobenz-yloxy)quinazoline] showed an IC50 [1] of 1090 nM.
